Reference: paper PMC10541190 (The Journal of Clinical Investigation, 2023)
Where “and” joins values, the source holds several entries; their conditions need not be identical. Equal values may be shown once. Read-outs that look alike come from different tables or passages of the source.

Tests used:
ErbB2 = ErbB2 (Homo sapiens, UniProt P04626); format: cell-based
ACE2 = format: cell-based, human
AKT, ERK, and p38 MAPK = format: cell-based, human
STK10 = details: cited from earlier work
Vero cells = details: African green monkey
[1] = system: SARS-CoV-2 main protease (Mpro); details: cited from earlier work
DENV2 [2] = format: cell-based
in vitro [3] = details: African green monkey
[4] = system: SARS-CoV-2 (USA-WA1/2020); assay: microbe, parasite or virus in culture; format: cell-based; details: Severe acute respiratory syndrome coronavirus 2, read-out: EC50, nucleocapsid transcript expression by RT-qPCR
Calu-3 cells = details: human, 1.25 µM
VEEV (TC-83) [5] = details: mouse, in vivo
rVSV-SARS-CoV-2-S [6] = assay: microbe, parasite or virus in culture; format: cell-based; details: Severe acute respiratory syndrome coronavirus 2, Vero, read-out: EC50, rVSV-SARS-CoV-2-S infection
[7] = system: SARS-CoV-2 (USA-WA1/2020); assay: microbe, parasite or virus in culture; format: cell-based; details: Severe acute respiratory syndrome coronavirus 2, read-out: EC50, viral replication by plaque assay
MAP2K5 = details: cited from earlier work
VEEV (TC-83) [8] = assay: microbe, parasite or virus in culture; format: cell-based; details: Venezuelan equine encephalitis virus, U-87 MG, read-out: EC50, VEEV (TC-83) infection
rVSV-SARS-CoV-2-S [9] = assay: microbe, parasite or virus in culture; format: cell-based
[10] = system: MPOXV 2003 and MPOXV 2022; assay: microbe, parasite or virus in culture; format: cell-based; details: Monkeypox virus, A549, read-out: EC50, monkeypox replication
in vitro [11] = details: human, Cell viability (%)
DENV2 [12] = assay: microbe, parasite or virus in culture; format: cell-based; details: Dengue virus, DENV2, Huh-7, read-out: EC50, DENV2 replication
[13] = mouse, in vivo
[14] = system: brain microvascular endothelial cell monolayer
EBOV (Kikwit isolate) = assay: microbe, parasite or virus in culture; format: cell-based; details: Zaire ebolavirus, Huh-7, read-out: EC50, EBOV replication
[15] = system: SARS-CoV-2 (USA-WA1/2020); assay: microbe, parasite or virus in culture; format: cell-based; details: Severe acute respiratory syndrome coronavirus 2, Calu-3, read-out: EC50, SARS-CoV-2 infection
rVSV-SARS-CoV-2-S [16] = format: cell-based
ErbB4 = format: cell-based
RAF1 = details: cited from earlier work
SLK = details: cited from earlier work
[17] = system: SARS-CoV-2 (USA-WA1/2020); assay: microbe, parasite or virus in culture; format: cell-based; details: Severe acute respiratory syndrome coronavirus 2, Vero
MARV (Ci67 strain) = assay: organism not typed; format: cell-based; details: Huh-7, read-out: EC50, MARV replication
[18] = system: SARS-CoV-2 (USA-WA1/2020); format: cell-based
[19] = system: IL-2, IL-12p70, IL-13, IL-6, IFN-γ, IL-10; format: cell-based, human
SARS-CoV-2 = format: cell-based
in vitro [20] = details: human, Huh7 cell viability (%)
[21] = system: TNF-α, IL-1β, IL-6, MCP-1; format: cell-based, human
A549 cells = details: human
[22] = system: claudin-7 tight junctions; format: cell-based, human
RIPK2 = details: cited from earlier work
[23] = human, in vivo; cited from earlier work

Chain of ErbB2 (P04626 23-1255): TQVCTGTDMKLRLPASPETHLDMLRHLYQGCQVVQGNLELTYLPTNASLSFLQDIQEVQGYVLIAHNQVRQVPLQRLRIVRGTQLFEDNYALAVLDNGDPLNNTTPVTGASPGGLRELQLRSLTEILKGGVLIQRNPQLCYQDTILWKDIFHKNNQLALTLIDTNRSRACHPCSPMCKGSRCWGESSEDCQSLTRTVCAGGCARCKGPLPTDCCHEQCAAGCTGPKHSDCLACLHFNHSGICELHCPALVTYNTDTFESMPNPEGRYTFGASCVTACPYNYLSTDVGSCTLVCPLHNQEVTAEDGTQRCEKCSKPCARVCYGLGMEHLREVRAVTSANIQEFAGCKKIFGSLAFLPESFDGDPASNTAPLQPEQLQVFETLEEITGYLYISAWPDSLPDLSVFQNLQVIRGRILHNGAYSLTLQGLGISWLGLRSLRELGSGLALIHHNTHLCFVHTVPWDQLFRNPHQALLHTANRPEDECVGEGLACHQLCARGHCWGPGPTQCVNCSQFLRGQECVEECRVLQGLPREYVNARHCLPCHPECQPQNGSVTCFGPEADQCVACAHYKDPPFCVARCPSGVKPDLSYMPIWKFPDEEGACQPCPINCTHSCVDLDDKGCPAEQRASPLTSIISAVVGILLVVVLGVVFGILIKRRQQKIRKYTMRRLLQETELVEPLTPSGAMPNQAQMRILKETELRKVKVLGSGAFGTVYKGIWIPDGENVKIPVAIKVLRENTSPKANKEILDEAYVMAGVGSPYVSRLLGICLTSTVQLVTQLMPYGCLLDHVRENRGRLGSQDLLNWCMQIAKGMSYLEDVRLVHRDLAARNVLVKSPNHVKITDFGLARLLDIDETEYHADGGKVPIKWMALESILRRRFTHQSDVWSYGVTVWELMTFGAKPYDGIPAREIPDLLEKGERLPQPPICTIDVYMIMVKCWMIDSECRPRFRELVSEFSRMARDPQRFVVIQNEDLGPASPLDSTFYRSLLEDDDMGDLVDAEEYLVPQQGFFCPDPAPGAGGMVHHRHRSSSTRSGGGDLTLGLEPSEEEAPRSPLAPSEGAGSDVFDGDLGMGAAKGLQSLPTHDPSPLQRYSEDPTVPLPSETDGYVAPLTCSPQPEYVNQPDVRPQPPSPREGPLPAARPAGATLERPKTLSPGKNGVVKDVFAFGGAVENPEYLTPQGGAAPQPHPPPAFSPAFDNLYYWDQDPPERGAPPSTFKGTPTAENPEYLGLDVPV

CS(=O)(=O)CCNCc1ccc(-c2ccc3ncnc(Nc4ccc(OCc5cccc(F)c5)c(Cl)c4)c3c2)o1 [Lapatinib]
increase in cell surface level of ErbB2 (ErbB2): more than 2 fold | cell surface level of ACE2 in infected cells (ACE2): reversed the effect of SARS-CoV-2 infection | SARS-CoV-2-induced activation of AKT and ERK (1.5 and 24 hpi) and p38 MAPK (24 hpi) (AKT, ERK, and p38 MAPK): dramatically inhibited | Other targets: STK10 (% of control) (STK10): RAF1 (0%), STK10 (1.4%), RIPK2 (6.1%), MAP2K5 (12%), SLK (18%) | CC50 (Vero cells): > 20 µM | effect on SARS-CoV-2 main protease (Mpro) [1]: inhibits | replication of DENV2 (DENV2 [2]): dose-dependently inhibited replication | CC50 (in vitro [3]): > 20 µM | viability at 6.67 µM (in vitro [3]; Cell viability (%)): 86.8% | viability at 20 µM (in vitro [3]; Cell viability (%)): 64% | viability at 20 µM (in vitro [3]; Vero cell viability (%)): 85% | EC50 [4]: < 200 nM | Calu-3 cell viability (%) (Calu-3 cells): 85.68% | mice protected (VEEV (TC-83) [5]): 60% | mice protected by day 10 (VEEV (TC-83) [5]): 80% | mice protected by day 14 (VEEV (TC-83) [5]): 40% | toxicity of the dose in the VEEV model (VEEV (TC-83) [5]): nontoxic | EC50 (rVSV-SARS-CoV-2-S [6]): 3.2 µM | EC50 [7]: 400 nM | Other targets: MAP2K5 (% of control) (MAP2K5): RAF1 (0%), STK10 (1.4%), RIPK2 (6.1%), MAP2K5 (12%), SLK (18%) | EC50 (VEEV (TC-83) [8]): 1200 nM | EC50 (rVSV-SARS-CoV-2-S [9]; Severe acute respiratory syndrome coronavirus 2, Calu-3, read-out: EC50, rVSV-SARS-CoV-2-S infection): 2600 to 3200 nM | EC50 (rVSV-SARS-CoV-2-S [9]; read-out: EC50, rVSV-SARS-CoV-2-S infection): 2600 nM | EC50 [10]: 6.2 to 7.6 µM | viability at 20 µM (in vitro [11]): 68.5% | EC50 (DENV2 [12]): 2000 nM | tolerability [13]: good tolerability | barrier integrity (FITC-dextran permeability) [14]: maintained barrier integrity | EC50 (EBOV (Kikwit isolate)): 2500 nM | EC50 [15]: 700 nM | effect on rVSV-SARS-CoV-2-S infection when added upon or after virus binding (rVSV-SARS-CoV-2-S [16]): comparable effects | antiviral effect on VEEV (TC-83) upon ectopic expression of WT ErbB4 (ErbB4): completely or partially reversed | Other targets: RAF1 (% of control) (RAF1): RAF1 (0%), STK10 (1.4%), RIPK2 (6.1%), MAP2K5 (12%), SLK (18%) | Other targets: SLK (% of control) (SLK): RAF1 (0%), STK10 (1.4%), RIPK2 (6.1%), MAP2K5 (12%), SLK (18%) | EC50 ([17]; 24 h, read-out: SARS-CoV-2 EC50): 500 nM | EC50 ([17]; read-out: EC50, SARS-CoV-2 infection): 500 nM | EC50 (MARV (Ci67 strain)): 2000 nM | SARS-CoV-2 nucleocapsid staining (confocal IF) [18]: near-complete disappearance | IFN-γ concentration [19]: 26.79 pg/mL and 38.39 pg/mL | IL-1β concentration [19]: 11.89 pg/mL and 16.34 pg/mL | IL-2 concentration [19]: 11.13 pg/mL and 12.03 pg/mL | IL-4 concentration [19]: 7.10 pg/mL and 9.18 pg/mL | IL-6 concentration [19]: 1072.19 pg/mL and 1729.84 pg/mL | IL-8 concentration [19]: 2235.87 pg/mL and 2263.16 pg/mL | IL-10 concentration [19]: 8.47 pg/mL and 10.43 pg/mL | IL-12p70 concentration [19]: 18.48 pg/mL and 18.83 pg/mL | IL-13 concentration [19]: 9.88 pg/mL and 8.83 pg/mL | TNF-α concentration [19]: 22.84 pg/mL and 21.83 pg/mL | production of IL-2, IL-12p70, IL-13 and IL-6 [19]: reduced the production | mean Manders' coefficient, colocalization of nucleocapsid and Rab7 (SARS-CoV-2): 0.33 | number of nucleocapsid puncta per cell (SARS-CoV-2): significantly reduced | viability at 0.37 µM (in vitro [20]): 103% | viability at 3.333 µM (in vitro [20]): 105% | IL-6 concentration in ALOs' supernatants [21]: 6.30 pg/mL and 5.01 pg/mL and 5.83 pg/mL and 5.58 pg/mL and 5.85 pg/mL and 5.34 pg/mL and 4.40 pg/mL and 3.70 pg/mL | MCP-1 concentration in ALOs' supernatants [21]: 39.85 pg/mL and 40.23 pg/mL and 32.64 pg/mL and 29.59 pg/mL and 33.59 pg/mL and 31.32 pg/mL and 47.61 pg/mL and 36.68 pg/mL | concentration achieving cytokine levels at or lower than in uninfected monolayers [21]: 0.5 µM | expression level of MCP-1 [21]: increased | expression level of TNF-α, IL-1β and IL-6 [21]: dose-dependently reduced | A549 viability (%) (A549 cells): 103.13% | claudin-7 morphology and alveolar-like architecture [22]: intact claudin-7 morphology | Other targets: RIPK2 (% of control) (RIPK2): RAF1 (0%), STK10 (1.4%), RIPK2 (6.1%), MAP2K5 (12%), SLK (18%) | estimated incidence of pneumonitis, interstitial lung disease or lung fibrosis [23]: 0.2%
